Experimental findings from publication PMC6591174, “The beneficial androgenic action of steroidal aromatase inactivators in estrogen-dependent breast cancer after failure of nonsteroidal drugs” (Cell Death & Disease, 2019) are described below.

Assay type in all cases: cell-based, human
The subject of one experiment is ZR-75-1 cells. As to the kind of experiment: Cell proliferation assay (CCK8), ZR-75-1. The settings on record: for proliferation of ZR-75-1 cells: 1 nM-10 μM, 6 days, 10% PRF-CT with 1 nM E2; for antiproliferative effect in presence of OH-Flutamide, ZR-75-1: 100 nM compound with 100 nM OH-Flutamide. The procedure: Fig. 2 Proliferative response of cancer cells to indicated compounds. a–c the effect of concentrations of different compounds on the growth of the cells. […] Cell growth was measured as described in the “Materials and methods”. The proliferation of cells is expressed as the ratio of the cells compared with the control wells (untreated cells). d, e Influence of different compounds on the cell cycle of MCF-7 cells. MCF-7 cells were cultured in 10% PRF-CT with E2 (1 nM) for 3 days before plating. Cells were seeded in six-well plates and, the next day, starved in PRF for 24 h. Cells were exposed to different compounds at a concentration of 100 nM for 72 h, and then subjected to cell-cycle analysis as described in “Materials and methods”. f MCF-7 cells on poly-L-lysine-coated glass coverslips were exposed to compounds (100 nM) in 10% PRF-CT with 1 nM E2 for 72 h. Control cells were treated with vehicle. DAPI stains DNA, and the secondary anti-mouse antibody to detect the antibody bound to Ki-67 is labeled with the cyanine dye Cy3. The cells were stained with DAPI (blue). Immunofluorescence staining of Ki-67 of cells was observed using fluorescence microscope. Red: Ki-67; blue: nucleus.Typical image is shown. Scale bars: 10 μm. Data represent a mean ± SEM of three independent experiments, each in triplicate; bars, SEM. *P ≤ 0.05 vs. control
After 24 h, cells were exposed for 3–6 days to various concentrations of compounds (1 nM– 10 μM) or left untreated. The incubation time and the compounds concentrations were chosen based on previous studies[17],[32]–[34]. The effects of the various drugs on cell proliferation at the indicated concentrations (1 nM– 10 μM) were determined by using a CCK8 kit (Dojindo Laboratories, Kumamoto, Japan) according to the manufacturer’s protocol. The absorbance at 450 nm was measured by using a Versamax microplate reader (Thermo Varioskan Flash, USA). Cell growth is expressed as the ratio of the cells compared with the control wells (untreated cells).

The next experiment deals with MCF-7 cells (AR siRNA). In words: Proliferation of MCF-7 cells after AR downregulation by siRNA. The settings on record: 100 nM, 72 h. On the procedure:
Cells were cultured and treated as described in the legend of Fig. 2. […] Cell growth is expressed as the ratio of the number of cells in the experimental well to that in control wells (untreated cells). The columns represent the mean of three experiments, each with five replicates; bars, SEM. *P ≤ 0.05, **P ≤ 0.01 vs. control
AR siRNA and its control siRNA used in this study were described by Wu et al.. The sequence of the AR siRNA used was 5′-[…]-3′ and a nonspecific siRNA duplex was used as a negative control. Growing cells were switched to PRF for 24 h and then switched to 10% PRF–CT medium containing 1 nM E2 for 48 h. MCF-7 cells were trypsinized and transfected in suspension with 2.5 μg siRNA (siAR or scrambled siRNA) or pcDNA3.1-AR in six-well plates, using Lipofectamine 3000 (Invitrogen) in OPTI-MEM medium (Gibco), following the manufacturer’s instructions.

The subject of a further experiment is MCF-7 cells. In words: Cell cycle analysis by flow cytometry. The settings on record: 100 nM, 72 h. On the procedure: Fig. 2 Proliferative response of cancer cells to indicated compounds. a–c the effect of concentrations of different compounds on the growth of the cells. Cells were cultured in 10% PRF-CT with E2 1 nM (MCF-7 and ZR-75-1) or without E2 (MDA-MB-231) for 3 days before plating. Cells were seeded in 96-well plates and 24 h later they were exposed to different concentrations (1 nM– 10 μM) of compounds for 6 days (MCF-7 and ZR-75-1) or 3 days (MDA-MB-231). Cell growth was measured as described in the “Materials and methods”. The proliferation of cells is expressed as the ratio of the cells compared with the control wells (untreated cells). d, e Influence of different compounds on the cell cycle of MCF-7 cells. MCF-7 cells were cultured in 10% PRF-CT with E2 (1 nM) for 3 days before plating. Cells were seeded in six-well plates and, the next day, starved in PRF for 24 h. Cells were exposed to different compounds at a concentration of 100 nM for 72 h, and then subjected to cell-cycle analysis as described in “Materials and methods”. f MCF-7 cells on poly-L-lysine-coated glass coverslips were exposed to compounds (100 nM) in 10% PRF-CT with 1 nM E2 for 72 h. Control cells were treated with vehicle. DAPI stains DNA, and the secondary anti-mouse antibody to detect the antibody bound to Ki-67 is labeled with the cyanine dye Cy3. The cells were stained with DAPI (blue). Immunofluorescence staining of Ki-67 of cells was observed using fluorescence microscope. Red: Ki-67; blue: nucleus.Typical image is shown. Scale bars: 10 μm. Data represent a mean ± SEM of three independent experiments, each in triplicate; bars, SEM. *P ≤ 0.05 vs. control
Cell cycle kinetics were studied by flow cytometry. MCF-7 cells were cultured in 10% PRF–CT with 1 nM E2 for 3 days prior to seeding on six-well plates (10^5 cells/well). Following seeding of cells, cells were serum starved for 24 h, and then treated with media containing 100 nM of the test compounds for 72 h. Cell-cycle analysis was performed as described by Ando[20].
(In general: Flow cytometry measures light scatter and fluorescence of single cells or particles in a stream.)

Structures are written as SMILES.

`C[C@]12CC[C@H]3[C@@H](CCC4=C(O)C(=O)CC[C@@]43C)[C@@H]1CC[C@@H]2O` [4-OHT, 4-hydroxytestosterone]: in the experiment on ZR-75-1 cells, the “proliferation of ZR-75-1 cells” value is “inhibits the proliferation of ZR-75-1 cells only at micromolar concentrations” and the “antiproliferative effect in presence of OH-Flutamide, ZR-75-1” value (shortened to “antiproliferative effect in presence”) is reported as “behave like DHT”. For the same compound, the “inhibition of proliferation after AR downregulation” value (“inhibition of proliferation” below) with MCF-7 cells (AR siRNA) is reported as “identical results”. Besides, the “influence on the cell cycle (G1/G0 increase, S-phase decrease)” value with MCF-7 cells is on record as “most effective of the tested compunds”.

In the case of `C=C1C[C@H]2[C@@H]3CC[C@H](O)[C@@]3(C)CC[C@@H]2[C@@]2(C)C=CC(=O)C=C12` [17-HEXE, 17-hydroexemestane], in the experiment on ZR-75-1 cells, the “antiproliferative effect in presence” value was “behave like DHT”. Besides, in the experiment on MCF-7 cells (AR siRNA), the “inhibition of proliferation” value is recorded as “identical results”.

Consider `C[C@]12CCC(=O)C[C@@H]1CC[C@@H]1[C@@H]2CC[C@]2(C)[C@@H](O)CC[C@@H]12` [DHT, dihydrotestosterone], for which, in the experiment on ZR-75-1 cells, the “proliferation of ZR-75-1 cells” value is “inhibits the proliferation of MCF-7 and ZR-75-1 cells at all tested concentrations”; the “antiproliferative effect in presence” value is given as “almost completely abolished”. Moreover, the “inhibition of proliferation” value with MCF-7 cells (AR siRNA) is “AR downregulation diminishes the ability”. The “influence on the cell cycle (G1/G0 increase, S-phase decrease)” value with MCF-7 cells was “most significant influence on the cell cycle”.
